These results are taken from ChEMBL document CHEMBL1201862, “PubChem BioAssay data set” (2004).

Activity calls are given as the source filed them.

What all share (type): functional
In test [1] the target is Dual specificity tyrosine-phosphorylation-regulated kinase 1A (Homo sapiens, UniProt Q13627).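 Also: measured against DYRK1A as one member of a broad kinome profiling panel.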
Test [2] deals with Proto-oncogene tyrosine-protein kinase receptor Ret (Homo sapiens, UniProt P07949).
Test [3] addresses Serine/threonine-protein kinase pim-1 (Homo sapiens, UniProt P11309).
In test [4] the target is Leukocyte tyrosine kinase receptor (Homo sapiens, UniProt P29376). The experiment in a line: Navigating the Kinome. Panel member name: LTK.
Test [5] addresses T1, cAMP-dependent protein kinase catalytic subunit PRKX (Homo sapiens, UniProt P51817).
T1 sequence (P51817 whole entry): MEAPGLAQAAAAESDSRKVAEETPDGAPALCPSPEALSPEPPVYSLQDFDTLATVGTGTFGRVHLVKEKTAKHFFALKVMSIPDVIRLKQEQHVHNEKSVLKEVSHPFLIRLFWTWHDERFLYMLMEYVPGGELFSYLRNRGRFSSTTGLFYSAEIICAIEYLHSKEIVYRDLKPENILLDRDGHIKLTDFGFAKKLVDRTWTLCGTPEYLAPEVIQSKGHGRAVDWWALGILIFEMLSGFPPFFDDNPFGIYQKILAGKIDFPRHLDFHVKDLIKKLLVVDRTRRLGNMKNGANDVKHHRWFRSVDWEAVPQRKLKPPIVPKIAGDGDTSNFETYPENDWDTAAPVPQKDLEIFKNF

Test [6] has as its target Calcium/calmodulin-dependent protein kinase type II subunit alpha (Homo sapiens, UniProt Q9UQM7). The experiment in a line: Navigating the Kinome. Panel member name: CAMK2A.
Test [7] concerns the target Dual specificity mitogen-activated protein kinase kinase 2 (Homo sapiens, UniProt P36507). The experiment in a line: Navigating the Kinome. Panel member name: MAP2K2.
The target of test [8] is Hepatocyte growth factor receptor (Homo sapiens, UniProt P08581).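 Also: kinase panel profiling across the kinome, with MET as the panel member.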
In test [9] the target is Macrophage-stimulating protein receptor (Homo sapiens, UniProt Q04912). The experiment in a line: Navigating the Kinome. Panel member name: MST1R.
The target of test [10] is Serine/threonine-protein kinase PAK 4 (Homo sapiens, UniProt O96013).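 Also: value obtained within a kinome profiling panel in which PAK4 was one of the panel members.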
Test [11] addresses Platelet-derived growth factor receptor alpha (Homo sapiens, UniProt P16234). The experiment in a line: Navigating the Kinome. Panel member name: PDGFRA.
Test [12] addresses G protein-coupled receptor kinase 5 (Homo sapiens, UniProt P34947). The experiment in a line: Navigating the Kinome. Panel member name: GPRK5.
The target in test [13] is Protein kinase C theta type (Homo sapiens, UniProt Q04759). The experiment in a line: Navigating the Kinome. Panel member name: PRKCQ.
The target in test [14] is Cyclin-dependent kinase 8 (Homo sapiens, UniProt P49336). The experiment in a line: Navigating the Kinome. Panel member name: CDK8.
Test [15] has as its target Mitogen-activated protein kinase 8 (Homo sapiens, UniProt P45983).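 Also: value comes from one member of a kinome-wide kinase profiling panel.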
Test [16] concerns the target T2, Serine/threonine-protein kinase TBK1 (Homo sapiens, UniProt Q9UHD2).
T2 sequence (Q9UHD2 whole entry): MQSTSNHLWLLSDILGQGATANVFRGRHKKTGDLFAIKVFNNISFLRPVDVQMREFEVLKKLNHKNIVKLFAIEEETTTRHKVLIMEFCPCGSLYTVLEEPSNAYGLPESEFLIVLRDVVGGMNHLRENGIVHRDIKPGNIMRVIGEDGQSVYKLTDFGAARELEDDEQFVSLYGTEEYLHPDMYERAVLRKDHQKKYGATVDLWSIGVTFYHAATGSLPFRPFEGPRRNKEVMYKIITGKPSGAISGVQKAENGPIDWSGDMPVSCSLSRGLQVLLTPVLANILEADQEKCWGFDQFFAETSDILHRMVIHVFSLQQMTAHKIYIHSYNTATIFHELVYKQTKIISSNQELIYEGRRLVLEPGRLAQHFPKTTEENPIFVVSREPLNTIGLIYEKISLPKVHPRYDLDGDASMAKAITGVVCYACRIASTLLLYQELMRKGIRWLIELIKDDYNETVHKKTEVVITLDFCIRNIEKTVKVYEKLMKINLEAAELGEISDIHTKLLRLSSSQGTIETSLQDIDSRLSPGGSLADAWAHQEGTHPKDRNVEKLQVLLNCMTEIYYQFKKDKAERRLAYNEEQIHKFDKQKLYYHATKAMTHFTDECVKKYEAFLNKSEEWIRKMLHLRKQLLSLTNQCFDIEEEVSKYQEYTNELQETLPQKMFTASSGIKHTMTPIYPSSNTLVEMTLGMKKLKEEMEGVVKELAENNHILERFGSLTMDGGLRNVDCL
The experiment in a line: Navigating the Kinome. Panel member name: TBK1.

The target of test [17] is Dual specificity protein kinase CLK4 (Homo sapiens, UniProt Q9HAZ1).
For test [18], the target named is cAMP-dependent protein kinase catalytic subunit alpha (Homo sapiens, UniProt P17612).
The target of test [19] is T3, Tyrosine-protein kinase receptor TYRO3 (Homo sapiens, UniProt Q06418).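 Also: TYRO3 value obtained as one member of a kinome-wide profiling panel.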
T3 sequence (Q06418 whole entry): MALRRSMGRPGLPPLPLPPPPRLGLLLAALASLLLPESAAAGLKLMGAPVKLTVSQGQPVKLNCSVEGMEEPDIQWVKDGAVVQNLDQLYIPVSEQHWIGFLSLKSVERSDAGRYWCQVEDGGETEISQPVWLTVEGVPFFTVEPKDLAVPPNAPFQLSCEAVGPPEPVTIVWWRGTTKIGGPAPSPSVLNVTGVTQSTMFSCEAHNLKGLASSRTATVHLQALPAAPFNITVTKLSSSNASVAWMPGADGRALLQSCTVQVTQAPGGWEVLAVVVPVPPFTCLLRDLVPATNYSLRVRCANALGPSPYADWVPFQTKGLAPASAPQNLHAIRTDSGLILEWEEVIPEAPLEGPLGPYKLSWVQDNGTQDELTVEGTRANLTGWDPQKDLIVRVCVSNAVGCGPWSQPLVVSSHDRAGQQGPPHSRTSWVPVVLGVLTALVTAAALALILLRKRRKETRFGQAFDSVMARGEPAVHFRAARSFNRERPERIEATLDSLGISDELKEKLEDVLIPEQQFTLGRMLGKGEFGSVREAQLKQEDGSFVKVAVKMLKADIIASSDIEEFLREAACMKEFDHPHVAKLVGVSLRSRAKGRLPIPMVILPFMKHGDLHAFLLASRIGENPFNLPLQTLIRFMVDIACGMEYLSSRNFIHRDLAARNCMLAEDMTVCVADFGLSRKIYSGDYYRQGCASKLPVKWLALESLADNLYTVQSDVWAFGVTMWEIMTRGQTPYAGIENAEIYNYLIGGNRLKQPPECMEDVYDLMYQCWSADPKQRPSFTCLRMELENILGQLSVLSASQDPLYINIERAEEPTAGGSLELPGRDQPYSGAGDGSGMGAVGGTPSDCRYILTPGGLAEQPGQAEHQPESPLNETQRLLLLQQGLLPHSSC

Sequence of Hepatocyte growth factor receptor (P08581 whole entry): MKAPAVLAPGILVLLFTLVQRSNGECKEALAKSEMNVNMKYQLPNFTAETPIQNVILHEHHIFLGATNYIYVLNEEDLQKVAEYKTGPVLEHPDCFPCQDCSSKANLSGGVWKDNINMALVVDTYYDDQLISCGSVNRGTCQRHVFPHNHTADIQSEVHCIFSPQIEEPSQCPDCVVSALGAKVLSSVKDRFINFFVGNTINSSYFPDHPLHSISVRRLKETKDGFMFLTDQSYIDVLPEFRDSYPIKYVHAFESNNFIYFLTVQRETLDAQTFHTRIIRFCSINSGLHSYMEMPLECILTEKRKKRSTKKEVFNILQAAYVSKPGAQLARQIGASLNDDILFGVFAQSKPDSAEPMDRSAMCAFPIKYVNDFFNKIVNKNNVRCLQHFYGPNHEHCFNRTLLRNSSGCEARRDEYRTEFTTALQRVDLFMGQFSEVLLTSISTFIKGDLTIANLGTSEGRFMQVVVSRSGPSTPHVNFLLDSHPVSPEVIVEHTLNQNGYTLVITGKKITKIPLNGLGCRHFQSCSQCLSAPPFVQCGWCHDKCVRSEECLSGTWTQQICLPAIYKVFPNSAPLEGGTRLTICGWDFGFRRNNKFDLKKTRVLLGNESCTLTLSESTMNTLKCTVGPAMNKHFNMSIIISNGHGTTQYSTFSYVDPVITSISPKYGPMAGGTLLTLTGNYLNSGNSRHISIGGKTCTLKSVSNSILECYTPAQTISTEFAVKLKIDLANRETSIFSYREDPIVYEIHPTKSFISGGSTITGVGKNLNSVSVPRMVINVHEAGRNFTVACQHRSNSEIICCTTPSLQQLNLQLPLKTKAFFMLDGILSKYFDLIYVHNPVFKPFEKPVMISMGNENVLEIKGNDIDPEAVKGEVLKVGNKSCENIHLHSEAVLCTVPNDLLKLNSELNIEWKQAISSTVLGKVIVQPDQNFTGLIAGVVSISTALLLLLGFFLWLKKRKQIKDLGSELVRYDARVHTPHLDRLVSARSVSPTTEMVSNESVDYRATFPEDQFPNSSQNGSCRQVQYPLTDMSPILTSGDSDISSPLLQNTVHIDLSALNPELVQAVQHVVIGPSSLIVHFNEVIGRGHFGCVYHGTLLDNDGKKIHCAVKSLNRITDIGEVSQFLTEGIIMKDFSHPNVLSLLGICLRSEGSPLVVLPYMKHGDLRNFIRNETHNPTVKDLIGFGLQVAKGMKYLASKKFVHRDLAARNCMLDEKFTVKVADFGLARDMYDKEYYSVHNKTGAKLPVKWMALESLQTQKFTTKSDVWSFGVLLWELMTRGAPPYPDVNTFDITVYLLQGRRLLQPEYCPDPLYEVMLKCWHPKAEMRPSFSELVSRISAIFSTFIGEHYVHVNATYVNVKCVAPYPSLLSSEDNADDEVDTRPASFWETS
Sequence of Serine/threonine-protein kinase PAK 4 (O96013 whole entry): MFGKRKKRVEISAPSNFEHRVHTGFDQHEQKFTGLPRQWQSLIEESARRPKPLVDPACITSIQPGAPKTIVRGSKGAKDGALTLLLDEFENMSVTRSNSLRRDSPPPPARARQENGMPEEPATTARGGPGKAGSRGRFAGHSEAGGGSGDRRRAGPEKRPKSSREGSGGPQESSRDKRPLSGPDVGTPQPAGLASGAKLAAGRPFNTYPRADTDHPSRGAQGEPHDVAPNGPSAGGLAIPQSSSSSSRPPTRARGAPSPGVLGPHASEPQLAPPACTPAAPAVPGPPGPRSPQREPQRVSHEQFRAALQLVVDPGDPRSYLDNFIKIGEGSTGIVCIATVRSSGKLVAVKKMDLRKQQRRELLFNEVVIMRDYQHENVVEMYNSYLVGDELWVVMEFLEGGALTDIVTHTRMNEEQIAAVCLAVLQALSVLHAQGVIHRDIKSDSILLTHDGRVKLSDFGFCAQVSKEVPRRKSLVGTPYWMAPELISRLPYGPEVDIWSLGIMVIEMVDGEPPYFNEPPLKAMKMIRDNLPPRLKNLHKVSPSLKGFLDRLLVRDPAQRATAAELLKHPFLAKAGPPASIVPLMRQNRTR
Sequence of Dual specificity protein kinase CLK4 (Q9HAZ1 whole entry): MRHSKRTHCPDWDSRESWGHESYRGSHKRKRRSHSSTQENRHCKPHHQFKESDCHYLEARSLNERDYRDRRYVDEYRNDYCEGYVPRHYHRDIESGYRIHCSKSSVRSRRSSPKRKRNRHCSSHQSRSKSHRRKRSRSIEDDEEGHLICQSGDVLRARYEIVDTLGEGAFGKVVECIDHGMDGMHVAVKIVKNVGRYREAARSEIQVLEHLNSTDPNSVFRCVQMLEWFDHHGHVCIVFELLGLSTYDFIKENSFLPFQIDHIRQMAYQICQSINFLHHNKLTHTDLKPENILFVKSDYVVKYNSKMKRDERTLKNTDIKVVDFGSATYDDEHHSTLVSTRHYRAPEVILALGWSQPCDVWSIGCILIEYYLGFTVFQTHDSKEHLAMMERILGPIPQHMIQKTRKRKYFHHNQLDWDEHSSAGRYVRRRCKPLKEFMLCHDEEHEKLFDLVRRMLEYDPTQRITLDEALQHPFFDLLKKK
Sequence of Protein kinase C theta type (Q04759 whole entry): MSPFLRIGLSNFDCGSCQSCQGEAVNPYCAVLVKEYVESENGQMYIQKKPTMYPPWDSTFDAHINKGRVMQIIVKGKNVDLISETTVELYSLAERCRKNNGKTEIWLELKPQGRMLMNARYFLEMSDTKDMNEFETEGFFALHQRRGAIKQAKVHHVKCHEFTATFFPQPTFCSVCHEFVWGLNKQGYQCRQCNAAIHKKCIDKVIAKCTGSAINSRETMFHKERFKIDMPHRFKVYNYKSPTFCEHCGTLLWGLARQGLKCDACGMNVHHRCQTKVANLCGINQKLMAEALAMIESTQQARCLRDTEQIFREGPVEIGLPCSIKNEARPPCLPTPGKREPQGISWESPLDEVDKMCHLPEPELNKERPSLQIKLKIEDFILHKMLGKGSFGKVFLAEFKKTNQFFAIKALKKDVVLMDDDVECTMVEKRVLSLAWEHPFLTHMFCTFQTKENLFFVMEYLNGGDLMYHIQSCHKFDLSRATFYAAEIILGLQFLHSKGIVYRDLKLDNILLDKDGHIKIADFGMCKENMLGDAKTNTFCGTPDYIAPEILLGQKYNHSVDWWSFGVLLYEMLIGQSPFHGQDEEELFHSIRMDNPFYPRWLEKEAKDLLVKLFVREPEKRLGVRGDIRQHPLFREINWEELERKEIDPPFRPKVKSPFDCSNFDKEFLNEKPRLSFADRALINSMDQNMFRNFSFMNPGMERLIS
Sequence of Dual specificity mitogen-activated protein kinase kinase 2 (P36507 whole entry): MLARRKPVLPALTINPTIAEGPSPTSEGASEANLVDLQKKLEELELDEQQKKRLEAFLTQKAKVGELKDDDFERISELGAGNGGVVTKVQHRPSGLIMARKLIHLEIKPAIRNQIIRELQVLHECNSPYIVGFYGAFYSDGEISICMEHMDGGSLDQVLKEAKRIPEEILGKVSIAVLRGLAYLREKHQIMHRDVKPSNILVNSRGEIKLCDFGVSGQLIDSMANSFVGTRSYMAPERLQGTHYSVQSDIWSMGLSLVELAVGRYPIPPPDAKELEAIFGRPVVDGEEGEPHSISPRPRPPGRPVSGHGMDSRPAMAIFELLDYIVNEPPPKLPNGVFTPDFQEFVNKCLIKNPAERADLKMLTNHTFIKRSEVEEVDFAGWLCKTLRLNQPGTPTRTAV
Sequence of Platelet-derived growth factor receptor alpha (P16234 whole entry): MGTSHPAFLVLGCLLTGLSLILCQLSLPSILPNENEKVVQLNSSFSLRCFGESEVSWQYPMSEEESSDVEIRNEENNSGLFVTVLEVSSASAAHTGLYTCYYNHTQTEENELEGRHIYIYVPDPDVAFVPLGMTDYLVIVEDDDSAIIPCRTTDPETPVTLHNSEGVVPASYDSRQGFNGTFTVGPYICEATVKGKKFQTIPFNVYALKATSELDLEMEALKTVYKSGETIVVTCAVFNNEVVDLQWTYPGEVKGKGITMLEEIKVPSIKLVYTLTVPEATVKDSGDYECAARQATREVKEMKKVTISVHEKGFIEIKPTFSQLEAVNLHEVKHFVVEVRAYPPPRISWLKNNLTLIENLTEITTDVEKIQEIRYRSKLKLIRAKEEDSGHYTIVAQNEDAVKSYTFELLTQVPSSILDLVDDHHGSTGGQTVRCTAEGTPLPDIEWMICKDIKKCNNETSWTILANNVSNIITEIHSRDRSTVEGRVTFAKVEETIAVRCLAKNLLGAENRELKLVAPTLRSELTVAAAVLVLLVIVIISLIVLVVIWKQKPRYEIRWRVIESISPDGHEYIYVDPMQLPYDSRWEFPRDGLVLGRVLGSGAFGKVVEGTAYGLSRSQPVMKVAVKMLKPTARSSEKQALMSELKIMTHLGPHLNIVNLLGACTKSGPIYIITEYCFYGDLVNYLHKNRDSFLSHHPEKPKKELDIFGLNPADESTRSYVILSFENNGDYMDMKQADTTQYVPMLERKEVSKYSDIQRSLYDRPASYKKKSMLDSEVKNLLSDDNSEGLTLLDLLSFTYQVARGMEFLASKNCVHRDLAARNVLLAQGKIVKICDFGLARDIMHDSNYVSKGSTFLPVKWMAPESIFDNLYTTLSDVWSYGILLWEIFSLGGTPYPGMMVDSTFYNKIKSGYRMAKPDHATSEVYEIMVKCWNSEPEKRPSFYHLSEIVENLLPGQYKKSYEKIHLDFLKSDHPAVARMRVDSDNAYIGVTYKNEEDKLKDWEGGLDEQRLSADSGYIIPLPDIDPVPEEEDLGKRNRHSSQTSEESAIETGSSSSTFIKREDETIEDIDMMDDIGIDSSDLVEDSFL
Sequence of Serine/threonine-protein kinase pim-1 (P11309 whole entry): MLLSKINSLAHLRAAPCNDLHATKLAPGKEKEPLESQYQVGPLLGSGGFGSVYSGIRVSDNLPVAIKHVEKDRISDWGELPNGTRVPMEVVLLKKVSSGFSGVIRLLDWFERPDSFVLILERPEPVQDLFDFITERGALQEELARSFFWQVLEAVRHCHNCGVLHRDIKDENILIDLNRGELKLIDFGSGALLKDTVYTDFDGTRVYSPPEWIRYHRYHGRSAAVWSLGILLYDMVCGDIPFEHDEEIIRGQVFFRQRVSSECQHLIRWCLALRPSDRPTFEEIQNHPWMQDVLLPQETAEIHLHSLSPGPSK

`COc1cccc(C(C)NC(=O)c2sc(-c3ccncc3)nc2C)c1` (configuration not stated): the Ki (usually a measure of affinity in units of concentration, obtained from inhibition or displacement) in test [1] is > 2 µM (inactive); in [2], > 3.16 µM (inactive); in test [3], > 6.31 µM (inactive); in [4] it was > 2.51 µM (inactive); in [5], > 3.16 µM (inactive); in test [6], > 3.98 µM (inactive). The Ki was > 3.98 µM (inactive) in test [7]; > 2.51 µM (inactive) in [8]; > 3.98 µM (inactive) in test [9]; > 5.01 µM (inactive) in test [10]; > 2.51 µM (inactive) in test [11]; > 3.98 µM (inactive) in test [12]. For the same molecule, the Ki in test [13] is > 2.51 µM (inactive); in test [14], > 3.98 µM (inactive); in [15] it was > 5.01 µM (inactive); in test [16] it was > 3.16 µM (inactive); in [17] it was > 2.51 µM (inactive); in test [18] it was > 1.26 µM (inactive). Also, in test [19], the Ki was > 3.16 µM (inactive).
With `CCCCC(=O)Nc1cc(-c2c[nH]c3ncccc23)cc(Cl)n1`, the inhibition constant Ki in [1] is 0.0398 µM (active); in test [2], > 3.16 µM (inactive); in [3], > 6.31 µM (inactive); in test [4] it was > 2.51 µM (inactive); in test [5] it was > 3.16 µM (inactive); in test [6], > 7.94 µM (inactive). For the same molecule, the Ki in [7] is > 3.98 µM (inactive); in test [8], > 2.51 µM (inactive); in test [9] it was > 3.98 µM (inactive); in test [10] it was > 5.01 µM (inactive); in test [11], > 2.51 µM (inactive); in test [12] it was > 3.98 µM (inactive). The Ki is > 2.51 µM (inactive) in [13]; 0.0158 µM (active) in test [14]; > 5.01 µM (inactive) in [15]; > 3.16 µM (inactive) in test [16]; 0.0126 µM (active) in test [17]; 0.316 µM (active) in [18]. The Ki in test [19] is > 3.16 µM (inactive).
As for `Oc1ccc(-c2nc(-c3ccncc3)c(-c3ccc(F)cc3)[nH]2)cc1` [SB-202190], the Ki was > 2 µM (inactive) in test [1]; > 3.16 µM (inactive) in test [2]; > 6.31 µM (inactive) in test [3]; > 1.58 µM (inactive) in test [4]; > 3.16 µM (inactive) in test [5]; > 3.98 µM (inactive) in test [6]. Further, the Ki was > 3.98 µM (inactive) in test [7]; > 2.51 µM (inactive) in test [8]; > 3.98 µM (inactive) in [9]; > 5.01 µM (inactive) in [10]; > 3.16 µM (inactive) in test [11]; > 3.98 µM (inactive) in test [12]. Moreover, the Ki in test [13] is > 2.51 µM (inactive); in test [14], > 3.98 µM (inactive); in test [15] it was 0.501 µM (active); in test [16] it was > 3.16 µM (inactive); in test [17], 2.51 µM (active); in test [18] it was 1 µM (active). The Ki in test [19] is > 3.16 µM (inactive).
